Experimental data: US20260234115A1, “LIPID COMPOUNDS, COMPOSITIONS, AND USES THEREOF” (Liberate Bio, Inc., priority 2023, published 2026)
Marks after values point to notes of the source that are not given here.

Experiments:
[1] = Dynamic light scattering: LNP particle size and PDI; format: physicochemical; conditions: for PDI N/P:6 / Size (nm) N/P:6: LNP
Outline: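 The LNPs were made by microfluidic mixing of the lipids in ethanol with mRNA in pH 4.0 citrate, then dialyzed into PBS pH 7.4. They were diluted in PBS pH 7.4, and particle size and PDI were measured by dynamic light scattering.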

mouse organs = test: In vivo activity screening in mice: organ mean total flux (p/s) of luciferase activity after injection of F2 LNP pools (Table 6, FIG. 7A-7C); conditions: luciferase mRNA
Outline: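 C57BL/6J mice given one tail-vein injection of pooled Formulation F2 LNPs carrying firefly luciferase mRNA (0.25-3 mg/kg) in PBS. At 4-6 h, s.c. D-luciferin given; organs imaged ex vivo by IVIS within 10-15 min, after saline cardiac perfusion. Mean total flux (p/s) per organ ROI.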

[2] = Plate-based fluorescence (RiboGreen) assay: nucleic acid cargo content and encapsulation efficiency of LNPs; format: physicochemical; conditions: for EE (%) N/P:6: LNP
Outline: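 LNPs made by microfluidic mixing of ethanolic lipids with mRNA in pH 4.0 citrate, dialyzed into PBS pH 7.4. Cargo quantified by RiboGreen fluorescence against a standard curve: Triton-lysed samples give total, TE-only samples give free cargo; encapsulation efficiency from their ratio.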

[3] = LNP compositions for Formulation F2 Study
[4] = LNP compositions for in vivo mouse study, four formulations (F1-F4) pooled, or pools of four compounds

PDI [1, 3]: 0.178
Particle Size (nm) [1, 3]: 107.6 nm
Particle Size (nm) ([1]; LNP compositions for in vivo mouse study, four formulations (F1-F4) of the lipid compound pooled, or pools of four compounds (sixteen compositions)): 82.9 nm
PDI [1, 4]: 0.106
PDI N/P:6 ([1]; Formulation F1, N/P 6): 0.06
Size (nm) N/P:6 ([1]; Formulation F1, N/P 6): 78 ± 2 nm
PDI N/P:6 ([1]; Formulation F2, N/P 6): 0.07
Size (nm) N/P:6 ([1]; Formulation F2, N/P 6): 90 ± 5 nm
PDI N/P:6 ([1]; Formulation F3, N/P 6): 0.14
Size (nm) N/P:6 ([1]; Formulation F3, N/P 6): 83 ± 1 nm
PDI N/P:6 ([1]; Formulation F4, N/P 6): 0.09
Size (nm) N/P:6 ([1]; Formulation F4, N/P 6): 68 ± 3 nm
EE % [2, 3]: 99%
EE % [2, 4]: 96%
mRNA Content [2, 4]: 93 µg/mL
EE (%) N/P:6 ([2]; Formulation F1, N/P 6): 99%
EE (%) N/P:6 ([2]; Formulation F2, N/P 6): 99%
EE (%) N/P:6 ([2]; Formulation F3, N/P 6): 99%
EE (%) N/P:6 ([2]; Formulation F4, N/P 6): 98%
SMILES: CCCCC/C=C\CCOC(=O)CCCCC(=O)OCC(COC(=O)CCCCC(=O)OCC/C=C\CCCCC)(COC(=O)CCC(CCCCCC)OC(=O)NCCN1CCCC1)COC(=O)CC12CC3CC(CC(C3)C1)C2 (stereo not drawn) [Compound 14, O6-[2-[[2-(1-adamantyl)acetyl]oxymethyl]-2-[[6-[(Z)-non-3-enoxy]-6-oxo-hexanoyl]oxymethyl]-3-[4-(2-pyrrolidin-1-ylethylcarbamoyloxy)decanoyloxy]propyl]O1-[(Z)-non-3-enyl]hexanedioate]
Organ Mean Total Flux Femur (mouse organs; Mouse 1, dose 0.3 mg/kg): 9.3 p/s (×10^6)
Organ Mean Total Flux Heart (mouse organs; Mouse 1, dose 0.3 mg/kg): 1.8 p/s (×10^6)
Organ Mean Total Flux Kidney (mouse organs; Mouse 1, dose 0.3 mg/kg): 2.8 p/s (×10^6)
Organ Mean Total Flux Liver (mouse organs; Mouse 1, dose 0.3 mg/kg): 3910 p/s (×10^6)
Organ Mean Total Flux Lung (mouse organs; Mouse 1, dose 0.3 mg/kg): 31.9 p/s (×10^6)
Organ Mean Total Flux Muscle (mouse organs; Mouse 1, dose 0.3 mg/kg): 9.5 p/s (×10^6)
Organ Mean Total Flux Pancreas (mouse organs; Mouse 1, dose 0.3 mg/kg): 14.9 p/s (×10^6)
Organ Mean Total Flux Spleen (mouse organs; Mouse 1, dose 0.3 mg/kg): 31.5 p/s (×10^6)
Organ Mean Total Flux Femur (mouse organs; Mouse 2, dose 1.0 mg/kg): 62.6 p/s (×10^6)
Organ Mean Total Flux Heart (mouse organs; Mouse 2, dose 1.0 mg/kg): 5.9 p/s (×10^6)
Organ Mean Total Flux Kidney (mouse organs; Mouse 2, dose 1.0 mg/kg): 7.0 p/s (×10^6)
Organ Mean Total Flux Liver (mouse organs; Mouse 2, dose 1.0 mg/kg): 2883 p/s (×10^6)
Organ Mean Total Flux Lung (mouse organs; Mouse 2, dose 1.0 mg/kg): 96.9 p/s (×10^6)
Organ Mean Total Flux Muscle (mouse organs; Mouse 2, dose 1.0 mg/kg): 144.9 p/s (×10^6)
Organ Mean Total Flux Pancreas (mouse organs; Mouse 2, dose 1.0 mg/kg): 32.1 p/s (×10^6)
Organ Mean Total Flux Spleen (mouse organs; Mouse 2, dose 1.0 mg/kg): 107.0 p/s (×10^6)
Organ Mean Total Flux Femur (mouse organs; Mouse 3, dose 1.0 mg/kg): 41.8 p/s (×10^6)
Organ Mean Total Flux Heart (mouse organs; Mouse 3, dose 1.0 mg/kg): 8.6 p/s (×10^6)
Organ Mean Total Flux Kidney (mouse organs; Mouse 3, dose 1.0 mg/kg): 7.7 p/s (×10^6)
Organ Mean Total Flux Liver (mouse organs; Mouse 3, dose 1.0 mg/kg): 4307 p/s (×10^6)
Organ Mean Total Flux Lung (mouse organs; Mouse 3, dose 1.0 mg/kg): 49.2 p/s (×10^6)
Organ Mean Total Flux Muscle (mouse organs; Mouse 3, dose 1.0 mg/kg): 193.7 p/s (×10^6)
Organ Mean Total Flux Pancreas (mouse organs; Mouse 3, dose 1.0 mg/kg): 23.4 p/s (×10^6)
Organ Mean Total Flux Spleen (mouse organs; Mouse 3, dose 1.0 mg/kg): 123.8 p/s (×10^6)
Organ Mean Total Flux Femur (mouse organs; Mouse 5, dose 0.5 mg/kg): 11.9 p/s (×10^6)
Organ Mean Total Flux Heart (mouse organs; Mouse 5, dose 0.5 mg/kg): 4.4 p/s (×10^6)
Organ Mean Total Flux Kidney (mouse organs; Mouse 5, dose 0.5 mg/kg): 1.8 p/s (×10^6)
Organ Mean Total Flux Liver (mouse organs; Mouse 5, dose 0.5 mg/kg): 1303 p/s (×10^6)
Organ Mean Total Flux Lung (mouse organs; Mouse 5, dose 0.5 mg/kg): 18.9 p/s (×10^6)
Organ Mean Total Flux Muscle (mouse organs; Mouse 5, dose 0.5 mg/kg): 34.1 p/s (×10^6)
Organ Mean Total Flux Pancreas (mouse organs; Mouse 5, dose 0.5 mg/kg): 1.9 p/s (×10^6)
Organ Mean Total Flux Spleen (mouse organs; Mouse 5, dose 0.5 mg/kg): 20.8 p/s (×10^6)
Organ Mean Total Flux Femur (mouse organs; Mouse 6, dose 0.5 mg/kg): 9.1 p/s (×10^6)
Organ Mean Total Flux Heart (mouse organs; Mouse 6, dose 0.5 mg/kg): 1.6 p/s (×10^6)
Organ Mean Total Flux Kidney (mouse organs; Mouse 6, dose 0.5 mg/kg): 3.2 p/s (×10^6)
Organ Mean Total Flux Liver (mouse organs; Mouse 6, dose 0.5 mg/kg): 676.3 p/s (×10^6)
Organ Mean Total Flux Lung (mouse organs; Mouse 6, dose 0.5 mg/kg): 17.3 p/s (×10^6)
Organ Mean Total Flux Muscle (mouse organs; Mouse 6, dose 0.5 mg/kg): 27.6 p/s (×10^6)
Organ Mean Total Flux Pancreas (mouse organs; Mouse 6, dose 0.5 mg/kg): 14.7 p/s (×10^6)
Organ Mean Total Flux Spleen (mouse organs; Mouse 6, dose 0.5 mg/kg): 28.7 p/s (×10^6)
Organ Mean Total Flux Femur (mouse organs; Mouse 9, dose 0.5 mg/kg): 13.3 p/s (×10^6)
Organ Mean Total Flux Heart (mouse organs; Mouse 9, dose 0.5 mg/kg): 1.2 p/s (×10^6)
Organ Mean Total Flux Kidney (mouse organs; Mouse 9, dose 0.5 mg/kg): 2.5 p/s (×10^6)
Organ Mean Total Flux Liver (mouse organs; Mouse 9, dose 0.5 mg/kg): 721.0 p/s (×10^6)
Organ Mean Total Flux Lung (mouse organs; Mouse 9, dose 0.5 mg/kg): 10.4 p/s (×10^6)
Organ Mean Total Flux Muscle (mouse organs; Mouse 9, dose 0.5 mg/kg): 31.2 p/s (×10^6)
Organ Mean Total Flux Pancreas (mouse organs; Mouse 9, dose 0.5 mg/kg): 10.2 p/s (×10^6)
Organ Mean Total Flux Spleen (mouse organs; Mouse 9, dose 0.5 mg/kg): 32.2 p/s (×10^6)
Organ Mean Total Flux Femur (mouse organs; Mouse 11, dose 0.5 mg/kg): 10.1 p/s (×10^6)
Organ Mean Total Flux Heart (mouse organs; Mouse 11, dose 0.5 mg/kg): 1.8 p/s (×10^6)
Organ Mean Total Flux Kidney (mouse organs; Mouse 11, dose 0.5 mg/kg): 0.9 p/s (×10^6)
Organ Mean Total Flux Liver (mouse organs; Mouse 11, dose 0.5 mg/kg): 360.7 p/s (×10^6)
Organ Mean Total Flux Lung (mouse organs; Mouse 11, dose 0.5 mg/kg): 25.4 p/s (×10^6)
Organ Mean Total Flux Muscle (mouse organs; Mouse 11, dose 0.5 mg/kg): 24.2 p/s (×10^6)
Organ Mean Total Flux Pancreas (mouse organs; Mouse 11, dose 0.5 mg/kg): 4.2 p/s (×10^6)
Organ Mean Total Flux Spleen (mouse organs; Mouse 11, dose 0.5 mg/kg): 26.2 p/s (×10^6)
Organ Mean Total Flux Femur (mouse organs; Mouse 12, dose 0.5 mg/kg): 9.3 p/s (×10^6)
Organ Mean Total Flux Heart (mouse organs; Mouse 12, dose 0.5 mg/kg): 1.8 p/s (×10^6)
Organ Mean Total Flux Kidney (mouse organs; Mouse 12, dose 0.5 mg/kg): 2.2 p/s (×10^6)
Organ Mean Total Flux Liver (mouse organs; Mouse 12, dose 0.5 mg/kg): 585.3 p/s (×10^6)
Organ Mean Total Flux Lung (mouse organs; Mouse 12, dose 0.5 mg/kg): 32.4 p/s (×10^6)
Organ Mean Total Flux Muscle (mouse organs; Mouse 12, dose 0.5 mg/kg): 35.5 p/s (×10^6)
Organ Mean Total Flux Pancreas (mouse organs; Mouse 12, dose 0.5 mg/kg): 3.5 p/s (×10^6)
Organ Mean Total Flux Spleen (mouse organs; Mouse 12, dose 0.5 mg/kg): 21.1 p/s (×10^6)
Organ Mean Total Flux Femur (mouse organs; Mouse 13, dose 0.5 mg/kg): 8.3 p/s (×10^6)
Organ Mean Total Flux Heart (mouse organs; Mouse 13, dose 0.5 mg/kg): 1.1 p/s (×10^6)
Organ Mean Total Flux Kidney (mouse organs; Mouse 13, dose 0.5 mg/kg): 5.7 p/s (×10^6)
Organ Mean Total Flux Liver (mouse organs; Mouse 13, dose 0.5 mg/kg): 439.7 p/s (×10^6)
Organ Mean Total Flux Lung (mouse organs; Mouse 13, dose 0.5 mg/kg): 16.8 p/s (×10^6)
Organ Mean Total Flux Muscle (mouse organs; Mouse 13, dose 0.5 mg/kg): 16.7 p/s (×10^6)
Organ Mean Total Flux Pancreas (mouse organs; Mouse 13, dose 0.5 mg/kg): 5.3 p/s (×10^6)
Organ Mean Total Flux Spleen (mouse organs; Mouse 13, dose 0.5 mg/kg): 19.7 p/s (×10^6)
Organ Mean Total Flux Femur (mouse organs; Mouse 14, dose 0.5 mg/kg): 10.8 p/s (×10^6)
Organ Mean Total Flux Heart (mouse organs; Mouse 14, dose 0.5 mg/kg): 2.0 p/s (×10^6)
Organ Mean Total Flux Kidney (mouse organs; Mouse 14, dose 0.5 mg/kg): 4.6 p/s (×10^6)
Organ Mean Total Flux Liver (mouse organs; Mouse 14, dose 0.5 mg/kg): 240.7 p/s (×10^6)
Organ Mean Total Flux Lung (mouse organs; Mouse 14, dose 0.5 mg/kg): 12.6 p/s (×10^6)
Organ Mean Total Flux Muscle (mouse organs; Mouse 14, dose 0.5 mg/kg): 41.1 p/s (×10^6)
Organ Mean Total Flux Pancreas (mouse organs; Mouse 14, dose 0.5 mg/kg): 7.6 p/s (×10^6)
Organ Mean Total Flux Spleen (mouse organs; Mouse 14, dose 0.5 mg/kg): 24.0 p/s (×10^6)
